One molecule from paper PMC12667485, “Molecular Chain Elongation Mechanism for n‐Caproate Biosynthesis by Megasphaera Hexanoica” (Advanced Science, 2025) can be followed below.

The assay concerns the target T1, MhTHL (Megasphaera hexanoica, UniProt A0A848BQU5, C88S).
T1 construct: gene HF872_02440; tetramerization motif
In words: X-ray crystal structure, […] Å. It counts as binding. The conditions noted are these: crystals soaked in 25 mM hexanoyl-CoA for 5 min, pH 7.5; the bound ligand is deacylated CoA; active site.

T1 sequence (A0A848BQU5 entry or part of it C88S): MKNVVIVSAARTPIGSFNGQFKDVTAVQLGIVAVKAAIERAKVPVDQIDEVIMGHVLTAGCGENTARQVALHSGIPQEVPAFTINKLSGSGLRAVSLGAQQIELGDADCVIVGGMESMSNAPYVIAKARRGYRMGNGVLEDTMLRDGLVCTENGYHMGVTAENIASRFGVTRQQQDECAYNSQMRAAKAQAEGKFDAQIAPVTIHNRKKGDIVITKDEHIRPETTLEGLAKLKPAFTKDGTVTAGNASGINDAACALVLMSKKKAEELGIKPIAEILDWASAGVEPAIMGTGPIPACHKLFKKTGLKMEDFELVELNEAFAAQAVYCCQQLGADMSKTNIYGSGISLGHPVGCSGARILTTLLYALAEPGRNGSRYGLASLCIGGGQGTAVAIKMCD

On to `CC(C)(COP(=O)(O)OP(=O)(O)OC[C@H]1O[C@@H](n2cnc3c(N)ncnc32)[C@H](O)[C@@H]1OP(=O)(O)O)[C@@H](O)C(=O)NCCC(=O)NCCS` [CoA], for which the “X-ray crystal structure, 1.64 Å” value was “a deacylated CoA molecule was bound to MhTHL in the mF observed‐DF calculated electron density map”.
